In patent publication US20240261417A1, “SOS1 DEGRADING AGENT AND PREPARATION METHOD THEREFOR AND APPLICATION THEREOF” (SHANGHAI LEADINGTAC PHARMACEUTICAL CO. LTD., priority 2021, published 2024):
pIC50: −log10 of the molar value.

Legend:
KRAS-G12C/SOS1 = biological target: T1, KRAS-G12C/SOS1 (Homo sapiens, UniProt Q07889); assay: KRAS-G12C/SOS1 binding assay (HTRF); details: inhibition of KRAS-G12C/SOS1 binding
T1 construct: purchased Cisbio 63ADKOOOCB16PEG
T1 sequence (Q07889 1-1333): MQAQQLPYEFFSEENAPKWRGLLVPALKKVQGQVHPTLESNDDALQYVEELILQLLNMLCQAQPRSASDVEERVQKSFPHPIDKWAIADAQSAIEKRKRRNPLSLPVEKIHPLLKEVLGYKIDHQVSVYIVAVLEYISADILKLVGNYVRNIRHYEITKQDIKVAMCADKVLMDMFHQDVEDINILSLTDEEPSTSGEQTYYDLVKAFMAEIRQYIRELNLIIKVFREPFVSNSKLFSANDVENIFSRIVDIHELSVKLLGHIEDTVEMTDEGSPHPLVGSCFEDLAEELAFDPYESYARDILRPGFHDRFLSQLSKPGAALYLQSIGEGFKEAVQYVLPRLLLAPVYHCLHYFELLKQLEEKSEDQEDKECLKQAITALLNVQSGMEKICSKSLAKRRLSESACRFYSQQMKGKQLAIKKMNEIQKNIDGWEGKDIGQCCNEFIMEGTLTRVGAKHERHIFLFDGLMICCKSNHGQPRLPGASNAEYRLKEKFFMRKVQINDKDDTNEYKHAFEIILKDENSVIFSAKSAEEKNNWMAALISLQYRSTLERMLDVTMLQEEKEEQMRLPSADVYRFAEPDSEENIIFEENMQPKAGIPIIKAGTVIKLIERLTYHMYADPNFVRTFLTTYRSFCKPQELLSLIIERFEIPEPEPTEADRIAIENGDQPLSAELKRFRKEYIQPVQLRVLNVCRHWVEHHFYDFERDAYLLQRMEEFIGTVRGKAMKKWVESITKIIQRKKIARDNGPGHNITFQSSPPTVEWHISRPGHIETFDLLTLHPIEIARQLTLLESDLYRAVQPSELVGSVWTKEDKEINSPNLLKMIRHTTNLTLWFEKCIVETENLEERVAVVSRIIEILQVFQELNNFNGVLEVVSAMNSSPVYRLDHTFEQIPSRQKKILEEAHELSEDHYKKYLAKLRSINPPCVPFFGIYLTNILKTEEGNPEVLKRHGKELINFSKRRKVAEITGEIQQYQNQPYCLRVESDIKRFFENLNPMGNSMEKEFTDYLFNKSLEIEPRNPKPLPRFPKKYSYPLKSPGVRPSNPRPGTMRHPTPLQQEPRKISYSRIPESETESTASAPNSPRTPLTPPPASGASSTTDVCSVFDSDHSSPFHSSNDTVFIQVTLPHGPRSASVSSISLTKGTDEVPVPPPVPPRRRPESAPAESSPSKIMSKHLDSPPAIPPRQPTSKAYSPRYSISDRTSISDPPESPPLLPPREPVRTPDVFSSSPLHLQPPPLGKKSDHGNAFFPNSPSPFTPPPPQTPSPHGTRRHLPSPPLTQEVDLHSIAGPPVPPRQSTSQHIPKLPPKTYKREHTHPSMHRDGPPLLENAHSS
Description: The following method was used to determine the extent of inhibition of KRAS-G12C/SOS1 binding by the preferred compounds of the present invention under in vitro conditions. In this method, the competitive inhibition of KRAS-G12C/SOS1 binding by the preferred compounds was assayed by the homogeneous time-resolved fluorescence (HTRF) technology using the KRAS-G12C/SOS1 binding assay kit (Cisbio, 63ADKOOOCB16PEG).
The experimental procedures were as follows (refer to the kit instructions for details): the compounds of the present invention were each firstly dissolved in DMSO at a concentration of 20 mM, and then diluted in an equal gradient with a buffer in the kit, so that the final concentrations of the test compounds in the reaction system were in a range of 10000 nM-0.04 nM, and the final concentration of DMSO was 0.5%. 2 μL of the compounds were each incubated with 4 μL of 1×Tag1-SOS1, 4 μL of 1×Tag2-KRAS-G12C (containing 10 μM guanosine triphosphate, GTP) at 25° C. for 15 min. Then 5 μL of 1× Anti-Tag1-Tb3+ and 5 μL of 1× Anti-Tag2-XL665 were added to the reaction system, and the mixture was incubated on ice for 3 h. After the incubation, the fluorescence intensity of each well was measured at the excitation wavelength of 337 nm, the fluorescence intensity of each well was read at the emission wavelengths of 620 nm and 665 nm on a microplate reader EnVision (PerkinElmer, 2105) in an HTRF mode, and the Ratio value was calculated by the formula Ratio=(665 nm/620 nm)×[…]. The inhibition rates of the compounds at each concentration were calculated by comparing the fluorescence intensity ratio with that of the control group, and then nonlinear curve fitting was performed by GraphPad Prism 8 in the logarithmic concentration-inhibition rate to obtain the IC50 values of the compounds, as shown in Table 1.

SOS1 protein = biological target: T2, SOS1 protein (Homo sapiens, UniProt Q07889); assay: SOS1 degradation assay (Western blot), NCI-H358 cells; assay type: cell-based; parameters: The degradation of SOS1 by the compounds was investigated on KRAS G12C mutant human non-small cell lung cancer cells NCI-H358; host or cells: NCI-H358 (human cancer cell lines); details: SOS1 degradation, NCI-H358 cells, 24 h, Western blot; for DC50: read-out: NCI-H358 (G12C) DC50; for Dmax: read-out: NCI-H358 (G12C) Dmax
T2 sequence (Q07889 1-1333): T1 sequence (Q07889 1-1333)
How it was run: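 Cells at 5×10^5 per well were treated for 24 h at 37 °C with compound at 0.03–3000 nM final. SOS1 in lysates was measured by Western blot with chemiluminescent densitometry and normalised to the control group. DC50 and Dmax came from nonlinear fits against log concentration.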

SMILES | pIC50 (KRAS-G12C/SOS1) | DC50 (SOS1 protein) [nM] | Dmax (SOS1 protein) [%]
COCCOc1cc2nc(C)nc(N[C@H](C)c3cc(N)cc(C(F)(F)F)c3)c2cc1[C@H]1CC[C@H](C(=O)N2CCN(CC3CCC4(CC3)CCN(C(=O)c3ccc(Cl)c(N5CCC(=O)NC5=O)c3)CC4)CC2)CC1 [Example 43, 1-(5-(9-((4-((1R,4R)-4-(4-(((R)-1-(3-amino-5-(trifluoromethyl)phenyl)ethyl)amino)-7-(2-methoxyethoxy)-2-methylquinazolin-6-yl)cyclohexane-1-carbonyl)piperazin-1-yl)methyl)-3-azaspiro[5.5]undecane-3-carbonyl)-2-chlorophenyl)dihydropyrimidine-2,4(1H,3H)-dione] | ≥ 7.82 | < 50 | 50 to 80
COc1cc2nc(C)nc(N[C@H](C)c3cccc4c3CCS4(=O)=O)c2cc1[C@H]1CC[C@H](C(=O)N2CCC(CCOCC3CCN(C(=O)c4ccc(Cl)c(N5CCC(=O)NC5=O)c4)CC3)CC2)CC1 [Example 55, 1-(2-chloro-5-(4-((2-(1-((1R,4R)-4-(4-(((R)-1-(1,1-dioxido-2,3-dihydrobenzo[b]thiophen-4-yl)ethyl)amino)-7-methoxy-2-methylquinazolin-6-yl)cyclohexane-1-carbonyl)piperidin-4-yl)ethoxy)methyl)piperidine-1-carbonyl)phenyl)dihydropyrimidine-2,4(1H,3H)-dione] | ≥ 7.82 |  | 
COc1cc2nc(C)nc(N[C@H](C)c3cc(-c4c(Cl)cccc4CN(C)C)cs3)c2cc1[C@H]1CC[C@H](C(=O)N2CCC(CCOCC3CCN(C(=O)c4ccc(OC(F)(F)F)c(N5CCC(=O)NC5=O)c4)CC3)CC2)CC1 [Example 58, 1-(5-(4-((2-(1-((1R,4R)-4-(4-(((R)-1-(4-(2-chloro-6-((dimethylamino)methyl)phenyl)thien-2-yl)ethyl)amino)-7-methoxy-2-methylquinazolin-6-yl)cyclohexane-1-carbonyl)piperidin-4-yl)ethoxy)methyl)piperidine-1-carbonyl)-2-(trifluoromethoxy)phenyl)dihydropyrimidine-2,4(1H,3H)-dione] | ≥ 7.82 |  | 
COc1cc2nc(C)nc(N[C@H](C)c3cccc4c3CCS4(=O)=O)c2cc1[C@H]1CC[C@H](C(=O)N2CCC(CCOCC3CCN(C(=O)c4ccc(C(F)(F)F)c(N5CCC(=O)NC5=O)c4)CC3)CC2)CC1 [Example 66, 1-(5-(4-((2-(1-((1R,4R)-4-(4-(((R)-1-(1,1-dioxido-2,3-dihydrobenzo[b]thiophen-4-yl)ethyl)amino)-7-methoxy-2-methylquinazolin-6-yl)cyclohexane-1-carbonyl)piperidin-4-yl)ethoxy)methyl)piperidine-1-carbonyl)-2-(trifluoromethyl)phenyl)dihydropyrimidine-2,4(1H,3H)-dione] | ≥ 7.82 |  | 

Second part, the molecule after the results:

pIC50 (KRAS-G12C/SOS1) | DC50 (SOS1 protein) [nM] | Dmax (SOS1 protein) [%] | SMILES
≥ 7.82 | < 50 | 80 to 100 | COc1cc2nc(C)nc(N[C@H](C)c3cc(N)cc(C(F)(F)F)c3)c2cc1[C@H]1CC[C@H](C(=O)N2CCN(CCN3CCC4(CC3)CCN(C(=O)c3ccc(Cl)c(N5CCC(=O)NC5=O)c3)CC4)CC2)CC1 [Example 3, 1-(5-(9-(2-(4-((1R,4R)-4-(4-(((R)-1-(3-amino-5-(trifluoromethyl)phenyl)ethyl)amino)-7-methoxy-2-methylquinazolin-6-yl)cyclohexane-1-carbonyl)piperazin-1-yl)ethyl)-3,9-diazaspiro[5.5]undecane-3-carbonyl)-2-chlorophenyl)dihydropyrimidine-2,4(1H,3H)-dione]
≥ 7.82 | < 50 | 50 to 80 | COc1cc2nc(C)nc(N[C@H](C)c3cc(N)cc(C(F)(F)F)c3)c2cc1[C@H]1CC[C@H](C(=O)N2CCN(CCCOC3CCN(C(=O)c4ccc(Cl)c(N5CCC(=O)NC5=O)c4)CC3)CC2)CC1 [Example 28, 1-(5-(4-(3-(4-((1R,4R)-4-(4-(((R)-1-(3-amino-5-(trifluoromethyl)phenyl)ethyl)amino)-7-methoxy-2-methylquinazolin-6-yl)cyclohexane-1-carbonyl)piperazin-1-yl)propoxy)piperidine-1-carbonyl)-2-chlorophenyl)dihydropyrimidine-2,4(1H,3H)-dione]
